# What was measured:
# Type in all cases: cell-based
# [1] = system: bone marrow derived mesenchymal stem cells; assay: Bone marrow derived MSC seeding and expansion with nicotinamide
# Procedure: FIG. 11 is a bar graph illustrating % of BM derived adherent cells expressing mesenchymal stem cells markers in culture seeded +/−NAM, prior to the first passage. Mononuclear cells were isolated from bone marrow using Ficoll and the “plastic adherence” method in the presence or absence of Nicotinamide. Non-adherent cells were washed away 3-4 days later and the media was replaced every 3-4 days. FACS analysis was performed in order to obtain expression levels of surface molecules prior to the first passage (8 days post-seeding). Isolation: Bone marrow derived and adipose tissue derived mesenchymal cells were isolated based on their plastic adherence potential in expansion medium containing: High glucose DMEM and 10% Fetal Bovine Serum (FBS, Hyclone, Logan, Utah, USA) supplemented with 0.05 mg/ml Gentamicin (Sigma) and 2 mM L-glutamine (Biological Industries, Israel). Cells were allowed to adhere for 3-4 days and non-adherent cells were washed out with medium changes. The medium was further exchanged with fresh medium every 3-4 days. Maintenance and expansion: Once adherent cells reached approximately 80-90% confluency, they were detached with 0.25% trypsin-EDTA (Sigma), washed twice in DMEM and 10% Fetal Bovine Serum, with centrifugation, 400 g, 5 minutes, and re-plated at a 1:2 to 1:1000 dilution under the same culture conditions. Measurement of number of cells in culture: Cell number was measured using Cedex Automated Cell Counter (Innovatis). The cells were diluted 1:2 in Trypan Blue (Sigma) and cell number was measured automatically under microscope. Treatment of mesenchymal cultures with nicotinamide: Mesenchymal cultures were initiated as described above, […], or in combination with growth factors or growth factors alone, incubated at 37° C. in a humidified atmosphere of 5% CO2 in air. At each passage and at each medium exchange, the cultures were supplemented with mesenchymal medium, nicotinamide and growth factors.
# [2] = system: adipose derived mesenchymal stem cells; assay: Adipose tissue derived MSC expansion and cell size with nicotinamide, with or without FGF4; conditions: 5 mM NAM, 50 ng/ml FGF4
# Procedure: FIG. 15 is a graph illustrating the effect of nicotinamide, with and without FGF4 on adipose-derived MSC proliferation, through 4 passages of culture. Adipose derived mesenchymal stem cells were isolated using collagenase digestion and plastic adherence method, and cultured for several passages with fetal bovine serum. −NAM−FGF4=controls (blue diamonds), +NAM−FGF4=culture with 5 mM NAM (red squares), +NAM+FGF4=culture with 50 ng/ml FGF4 and 5 mM NAM (green triangles). Note the synergic effect of Nicotinamide and FGF4 added together on adipose-derived MSC proliferation; FIG. 16 is a graph detailing the effect of nicotinamide, with and without FGF4 on nucleated cell proliferation in adipose-derived MSC proliferation at passage 4. Adipose-derived mesenchymal stem cells were isolated and cultured as described in FIG. 15. −NAM−FGF4=controls, +NAM−FGF4=culture with 5 mM NAM, +NAM+FGF4=culture with 50 ng/ml FGF4 and 5 mM NAM. […] Cell size was analyzed by Cedex cell counter. −NAM−FGF4=controls, +NAM−FGF4=culture with 5 mM NAM, +NAM+FGF4=culture with 50 ng/ml FGF4 and 5 mM NAM. Note the smaller size of MSC cells grown in the presence of nicotinamide, and even smaller MSCs grown with nicotinamide and FGF4; Proliferation and cell size distribution in adipose-derived mesenchymal stem cells cultured with nicotinamide with or without additional FGF4 was assessed in up to 4 passages of the cultures.
# [3] = system: Transforming Growth Factor-β (TGFβ); assay: TGFβ content of MSC conditioned medium by ELISA; conditions: passage 4; 5 mM NAM, 50 ng/ml FGF4; serum- and FGF4-free medium for 24 hours
# Procedure: FIG. 23 is a bar graph illustrating enhancement of Transforming Growth Factor-β (TGFβ) content of conditioned medium from nicotinamide and FGF4-treated MSC cultures. Bone marrow mesenchymal stem cells were isolated and cultured as in FIG. 22 above. Cultured media was changed to medium without fetal bovine serum or FGF4 24 hours prior to passage 4, collected from the passage 4 cultures and assayed for TGFβ content by ELISA. −NAM, −FGF4=control; +NAM−FGF4=5 mM NAM, +NAM+FGF4=5 mM NAM+50 ng/ml FGF4. Note the significant effect of combined FGF4 and nicotinamide on TGFβ secretion; Mesenchymal stem cells cultured with nicotinamide and FGF4 have enhanced expansion potential, and maintain an undifferentiated state, compared to mesenchymal stem cells cultured in unsupplemented medium, or mesenchymal stem cells cultured with added nicotinamide alone. In order to assess whether mesenchymal stem cells cultured with nicotinamide or nicotinamide and FGF4 modify the culture medium in a unique manner, secretion of biologically active molecules into the culture medium was measured by ELISA, after depletion of the FGF4 from the medium.
structure (smiles),measurement,setting,value
"NC(=O)c1cccnc1 [nicotinamide, Nicotinamide]",expansion rate of bone marrow derived MSCs,"[1]; low concentration of nicotinamide, e.g. 0.1 mM",insignificant effect
same,MSC doubling time,[1]; nicotinamide added from initiation of culture and at each passage,decreasing doubling time
same,seeding efficacy (selection) of bone marrow derived MSCs,[1]; seeded with or without nicotinamide,increased the seeding efficacy
same,size of the expanded adipose-derived mesenchymal stem cells,[2]; Cedex cell counter,enhanced growth of populations of smaller (less differentiated) cells
same,adipose derived mesenchymal stem cell expansion in culture,[2]; up to 4 passages,substantially improved
same,TGF-β level in conditioned medium,[3],elevated levels
